Laboratory results taken from patent US20250145589A1, “PYRIDINE DERIVATIVE AND USE THEREOF” (SICHUAN HUIYU PHARMACEUTICAL CO., LTD., priority 2021, published 2025).
Like-named read-outs stand apart in the source and are kept apart here.

How the values were obtained:
[1] = tested on: MIA PaCa-2-AMGR drug-resistant cell line; test: MIA PaCa-2-AMGR drug-resistant cell proliferation inhibitory activity test; type: cell-based; conditions: MIA PaCa-2-AMGR drug-resistant cells, 3 days incubation, CellTiter-Glo
Procedure, shortened: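 Viability was read by CellTiter-Glo luminescence after 3 days of compound exposure (8 points, 5-fold serial dilution), with IC50 derived relative to untreated control. Cells: AMG510-resistant MIA PaCa-2 (selected stepwise to 1 μM AMG510), 4×10^3/well, DMEM + 10% FBS + 2.5% horse serum, 37° C.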

[2] = tested on: MIA PaCa-2 cells (KRAS G12C mutant); test: MIA PaCa-2 cell anti-proliferation (CellTiter-Glo); type: cell-based
Procedure, shortened: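 Viable-cell luminescence (CellTiter-Glo, ≥30 min at 25 °C) measured after a 3-day, 37 °C exposure to compounds at 9 points, 4-fold spaced, in DMEM containing 10% FBS plus 2.5% horse serum. IC50 derived versus no-inhibitor wells.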

[3] = Homo sapiens, 72 h, MIA Paca-2 cells, 3 days, Table 7, read-out: MIA PaCa-2 (IC50)
[4] = MIA Paca-2 cells, 3 days, Table 7, read-out: MIA PaCa-2 (IC50)

Structure (SMILES) | IC50 ([1]; 72 h) [nM] | IC50 [2, 3] [nM] | IC50 [1] [nM] | IC50 [2, 4] [nM] | IC50 ([2]; Homo sapiens, MIA PaCa-2, 72 h, read-out: MIA PaCa-2 (IC50, nM)) [nM]
COc1ncc(-c2ccc3ncnc(N4CCN(C(=O)/C=C/C(C)=O)CC4)c3c2)cc1NS(=O)(=O)c1ccc(F)cc1F [Example 6, (E)-2,4-difluoro-N-(2-methoxy-5-(4-(4-(4-oxopent-2-enoyl)piperazin-1-yl)quinazoline-6-yl)pyridin-3-yl)benzenesulfonamide] | 49.2 | 17.1 |  |  | 
C=CC(=O)N1CCN(c2ncnc3ccc(-c4cnc(OC)c(NS(=O)(=O)c5ccc(F)cc5F)c4)cc23)[C@@H](C)C1 [Example 7, (S)—N-(5-(4-(4-acryloyl-2-methylpiperazin-1-yl)quinazolin-6-yl)-2-methoxypyridin-3-yl)-2,4-difluorobenzenesulfonamide] | 222 | 32.3 |  |  | 
COc1ncc(-c2ccc3ncnc(N4CCN(C(=O)/C=C/n5ccnn5)CC4)c3c2)cc1NS(=O)(=O)c1ccc(F)cc1F [Example 10, (E)-N-(5-(4-(4-(3-(1H-1,2,3-triazol-1-yl)acryloyl)piperazin-1-yl)quinazolin-6-yl)-2-methoxypyridin-3-yl)-2,4-difluorobenzenesulfonamide] | 226 | 83.2 |  |  | 
COc1ncc(-c2ccc3ncnc(N4C[C@@H](C)N(C(=O)/C=C/C(C)=O)C[C@@H]4C)c3c2)cc1NS(=O)(=O)c1ccc(F)cc1F [Example 15, N-(5-(4-((2S,5R)-2,5-dimethyl-4-((E)-4-oxopent-2-enoyl)piperazin-1-yl)quinazolin-6-yl)-2-methoxypyridin-3-yl)-2,4-difluorobenzenesulfonamide] | 243 | 71.1 |  |  | 
CCCC(=O)/C=C/C(=O)N1CCN(c2ncnc3ccc(-c4cnc(OC)c(NS(=O)(=O)c5ccc(F)cc5F)c4)cc23)CC1 [Example 17, (E)-2,4-difluoro-N-(2-methoxy-5-(4-(4-(4-oxohept-2-enoyl)piperazin-1-yl)quinazolin-6-yl)pyridin-3-yl)benzenesulfonamide] | 106 | 87.9 |  |  | 
COc1ncc(-c2ccc3ncnc(N4CCC5(CC4)CN(C(=O)/C=C/C(C)=O)C5)c3c2)cc1NS(=O)(=O)c1ccc(F)cc1F [Example 20, (E)-2,4-difluoro-N-(2-methoxy-5-(4-(2-(4-oxopent-2-enoyl)-2,7-diazaspiro[3.5]nonan-7-yl)quinazolin-6-yl)pyridin-3-yl)benzenesulfonamide] | 111 | 64.1 |  |  | 
COc1ncc(-c2ccc3ncnc(N4CCN(C(=O)/C=C/C(C)=O)CC4)c3c2)cc1NS(=O)(=O)c1c(F)cccc1F [Example 22, (E)-2,6-difluoro-N-(2-methoxy-5-(4-(4-(4-oxopent-2-enoyl)piperazin-1-yl)quinazolin-6-yl)pyridin-3-yl)benzenesulfonamide] | 76.7 | 92.1 |  |  | 
COc1ncc(-c2ccc3ncnc(N4CCC5(CN(C(=O)/C=C/C(C)=O)C5)C4)c3c2)cc1NS(=O)(=O)c1c(F)cccc1F [Example 42] |  |  | 185 | 284 | 
COc1ncc(-c2ccc3ncnc(N4CCN(C(=O)/C=C/C(C)=O)C[C@@H]4C)c3c2)cc1NS(=O)(=O)c1c(F)cccc1F [Example 46, (S,E)-2,6-difluoro-N-(2-methoxy-5-(4-(2-methyl-4-(4-oxopent-2-enoyl)piperazin-1-yl)quinazolin-6-yl)pyridin-3-yl) benzenesulfonamide] | 77.4 | 91.9 |  |  | 
COc1ncc(-c2ccc3ncnc(N4CCC5(CC4)CN(C(=O)/C=C/C(C)=O)C5)c3c2)cc1NS(=O)(=O)c1c(F)cccc1F [Example 49, (E)-2,6-difluoro-N-(2-methoxy-5-(4-(2-(4-oxopent-2-enoyl)-2,7-diazaspiro[3.5]nonan-7-yl)quinazolin-6-yl)pyridin-3-yl) benzenesulfonamide] | 62.4 | 110 |  |  | 
COc1ncc(-c2ccc3ncnc(N4C[C@@H](C)N(C(=O)/C=C/C(C)=O)C[C@@H]4C)c3c2)cc1NS(=O)(=O)c1c(F)cccc1F [Example 51, N-(5-(4-((2S,5R)-2,5-dimethyl-4-((E)-4-oxopent-2-enoyl)piperazin-1-yl)quinazolin-6-yl)-2-methoxypyridin-3-yl)-2,6-difluorobenzene-sulfonamide] | 181 | 50.7 |  |  | 
COc1ncc(-c2ccc3ncnc(N4CCN(C5CN(C(=O)/C=C/C(C)=O)C5)CC4)c3c2)cc1NS(=O)(=O)c1ccc(F)cc1F [Example 56, (E)-2,4-difluoro-N-(2-methoxy-5-(4-(4-(1-(4-oxopent-2-enoyl)azetidin-3-yl)piperazin-1-yl)quinazolin-6-yl)pyridin-3-yl)benzenesulfon-amide] | 116 |  |  |  | 
COc1ncc(-c2ccc3ncnc(N4CCC5(CC=CC5=O)CC4)c3c2)cc1NS(=O)(=O)c1ccc(F)cc1F [Example 70, 2,4-difluoro-N-(2-methoxy-5-(4-(1-oxo-8-azaspiro[4,5]dec-2-en-8-yl)quinazolin-6-yl)pyridin-3-yl)benzenesulfonamide] | 139 | 40.1 |  |  | 
COc1ncc(-c2ccc3ncnc(N4CCN(C(=O)/C=C/C(C)=O)CC4)c3c2)cc1NS(=O)(=O)c1cccc(F)c1F [Example 90, (E)-2,3-difluoro-N-(2-methoxy-5-(4-(4-(4-oxopent-2-enoyl)piperazin-1-yl)quinazolin-6-yl)pyridin-3-yl)benzenesulfonamide] | 106 | 51.9 |  |  | 
COc1ncc(-c2ccc3ncnc(N4CCN(C(=O)/C=C/C(C)=O)CC4)c3c2)cc1NS(=O)(=O)c1ccccc1F [Example 91, (E)-2-fluoro-N-(2-methoxy-5-(4-(4-(4-oxopent-2-enoyl)piperazin-1-yl)quinazolin-6-yl)pyridin-3-yl)benzenesulfonamide] | 79.8 | 30.7 |  |  | 
COc1ncc(-c2ccc3ncnc(N4CCN(C(=O)/C=C/C(C)=O)CC4)c3c2)cc1NS(=O)(=O)c1ccc(F)cc1 [Example 92, (E)-4-fluoro-N-(2-methoxy-5-(4-(4-(4-oxopent-2-enoyl)piperazin-1-yl)quinazolin-6-yl)pyridin-3-yl)benzenesulfonamide] | 56.9 | 31 |  |  | 
COc1ncc(-c2ccc3ncnc(N4CCN(C(=O)/C=C/C(C)=O)CC4)c3c2)cc1NS(=O)(=O)c1ccccc1C [Example 93, (E)-N-(2-methoxy-5-(4-(4-(4-oxopent-2-enoyl)piperazin-1-yl)quinazolin-6-yl)pyridin-3-yl)-2-methylbenzenesulfonamide] | 114 | 39.4 |  |  | 
COc1ncc(-c2ccc3ncnc(N4CCN(C(=O)/C=C/C(C)=O)CC4)c3c2)cc1NS(=O)(=O)c1cc(F)ccc1F [Example 94, (E)-2,5-difluoro-N-(2-methoxy-5-(4-(4-(4-oxopent-2-enoyl)piperazin-1-yl)quinazolin-6-yl)pyridin-3-yl)benzenesulfonamide] | 126 | 65.9 |  |  | 
COc1ncc(-c2ccc3ncnc(N4CCN(C(=O)/C=C/C(C)=O)CC4)c3c2)cc1NS(=O)(=O)c1c(F)cc(F)cc1F [Example 99, (E)-2,4,6-trifluoro-N-(2-methoxy-5-(4-(4-(4-oxopent-2-enoyl)piperazin-1-yl)quinazolin-6-yl)pyridin-3-yl)benzenesulfonamide] | 72.9 | 16.7 |  |  | 
COc1ncc(-c2ccc3ncnc(N4CCC5(CC4)CN(C(=O)/C=C/C(C)=O)C5)c3c2)cc1NS(=O)(=O)c1c(F)cc(F)cc1F [Example 101, (E)-2,4,6-trifluoro-N-(2-methoxy-5-(4-(2-(4-oxopent-2-enoyl)-2,7-diazaspiro[3.5]nonan-7-yl)quinazolin-6-yl)pyridin-3-yl)benzenesulfonamide] | 35.9 | 11.6 |  |  | 
COc1ncc(-c2ccc3ncnc(N4CCN(C(=O)/C=C/C(C)=O)CC4)c3c2)cc1NS(=O)(=O)c1c(F)cncc1F [Example 102, (E)-3,5-difluoro-N-(2-methoxy-5-(4-(4-(4-oxopent-2-enoyl)piperazin-1-yl)quinazolin-6-yl)pyridin-3-yl)pyridine-4-sulfonamide] | 908 | 142 |  |  | 
CCOc1ncc(-c2ccc3ncnc(N4CCN(C(=O)/C=C/C(C)=O)CC4)c3c2)cc1NS(=O)(=O)c1ccc(F)cc1F [Example 109, (E)-N-(2-ethoxy-5-(4-(4-(4-oxopent-2-enoyl)piperazin-1-yl)quinazolin-6-yl)pyridin-3-yl)-2,4-difluorobenzenesulfonamide] | 111 | 94.2 |  |  | 
COc1ncc(-c2ccc3ncnc(N4CCN(C(=O)/C=C/C(C)=O)CC4)c3c2)cc1NS(=O)(=O)c1ccc(C)cc1F [Example 111] |  |  | 90.1 | 44.4 | 
COc1ncc(-c2ccc3ncnc(N4CCN(C(=O)/C=C/C(C)=O)[C@@H](CC#N)C4)c3c2)cc1NS(=O)(=O)c1c(F)cccc1F [Example 116, (S,E)-N-(5-(4-(3-(cyanomethyl)-4-(4-oxopent-2-enoyl)piperazin-1-yl)quinazolin-6-yl)-2-methoxypyridin-3-yl)-2,6-difluorobenzenesulfonamide] | 462 | 107 |  |  | 
COc1ncc(-c2ccc3ncnc(N4CCN(C(=O)/C=C/C(C)=O)CC4)c3c2)cc1NS(=O)(=O)c1c(F)cccc1C#N [Example 122, (E)-2-cyano-6-fluoro-N-(2-methoxy-5-(4-(4-(4-oxopent-2-enoyl)piperazin-1-yl)quinazolin-6-yl)pyridin-3-yl)benzenesulfonamide] | 273 |  |  |  | 106
